Reference: ChEMBL document CHEMBL1201862, “PubChem BioAssay data set” (2004)
One block for each compound: values may come before it. Calls of active or inactive are those of the source.

Tests used:
[1] = molecular target: T1, Hexokinase HKDC1 (Homo sapiens, UniProt Q2TB90); test: inhibition of HKDC1 glucose phosphorylation – biochemical, W721R variant, dose response (AID 504729); assay type: functional
T1 sequence (Q2TB90 whole entry): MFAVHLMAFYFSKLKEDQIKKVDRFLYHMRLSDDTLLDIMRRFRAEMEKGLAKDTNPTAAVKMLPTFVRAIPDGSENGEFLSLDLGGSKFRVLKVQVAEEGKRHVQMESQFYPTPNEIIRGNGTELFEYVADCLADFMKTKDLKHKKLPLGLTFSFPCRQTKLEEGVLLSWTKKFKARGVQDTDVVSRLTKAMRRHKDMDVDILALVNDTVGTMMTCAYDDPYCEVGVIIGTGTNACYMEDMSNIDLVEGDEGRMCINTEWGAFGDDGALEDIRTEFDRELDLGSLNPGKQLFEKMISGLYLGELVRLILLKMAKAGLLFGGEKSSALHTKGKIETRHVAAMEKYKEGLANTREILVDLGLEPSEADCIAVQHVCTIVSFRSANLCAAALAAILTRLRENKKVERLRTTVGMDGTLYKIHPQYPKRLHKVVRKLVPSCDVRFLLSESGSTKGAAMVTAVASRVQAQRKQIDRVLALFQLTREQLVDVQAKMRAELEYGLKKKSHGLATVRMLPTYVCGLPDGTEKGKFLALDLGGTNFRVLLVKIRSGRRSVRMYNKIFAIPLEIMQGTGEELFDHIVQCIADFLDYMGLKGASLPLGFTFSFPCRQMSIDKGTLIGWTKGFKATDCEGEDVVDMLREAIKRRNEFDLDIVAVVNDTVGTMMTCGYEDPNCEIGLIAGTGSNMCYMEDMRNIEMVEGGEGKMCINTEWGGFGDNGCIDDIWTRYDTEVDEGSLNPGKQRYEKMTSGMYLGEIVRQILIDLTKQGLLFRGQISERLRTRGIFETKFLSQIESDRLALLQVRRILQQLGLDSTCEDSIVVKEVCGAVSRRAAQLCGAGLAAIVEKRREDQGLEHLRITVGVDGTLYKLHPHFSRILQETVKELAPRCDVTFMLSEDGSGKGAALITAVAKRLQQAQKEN

[2] = molecular target: T2, Microphthalmia-associated transcription factor (Homo sapiens, UniProt O75030); test: reducers of TRPM1 reporter luminescence, concentration series – cell-based, SK-MEL-5, cherry-picked, set 3, MITF inhibitor project, dose response (AID 493073); assay type: functional;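 note: SK-MEL-5 melanoma cells with luciferase driven by the MITF target TRPM1 promoter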
T2 sequence (O75030 whole entry): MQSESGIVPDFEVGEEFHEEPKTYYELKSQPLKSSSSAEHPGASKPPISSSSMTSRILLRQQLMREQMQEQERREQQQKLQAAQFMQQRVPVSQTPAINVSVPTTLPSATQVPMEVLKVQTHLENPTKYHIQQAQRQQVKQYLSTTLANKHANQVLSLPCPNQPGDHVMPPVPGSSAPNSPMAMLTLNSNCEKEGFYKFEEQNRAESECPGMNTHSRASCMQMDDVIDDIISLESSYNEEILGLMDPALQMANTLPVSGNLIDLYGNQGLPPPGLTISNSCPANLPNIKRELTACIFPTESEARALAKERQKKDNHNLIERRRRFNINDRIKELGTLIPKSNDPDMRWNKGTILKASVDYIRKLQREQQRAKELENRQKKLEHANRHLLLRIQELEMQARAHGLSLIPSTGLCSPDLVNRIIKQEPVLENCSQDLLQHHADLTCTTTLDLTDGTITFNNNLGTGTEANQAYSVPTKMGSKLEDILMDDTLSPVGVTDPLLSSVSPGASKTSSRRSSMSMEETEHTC

[3] = test system: Vero; test: viability of Vero cells under compound – cytotoxicity control for flavivirus capping enzyme inhibitors (AID 588742); assay type: functional; conditions: Chlorocebus sabaeus
[4] = molecular target: Genome polyprotein (dengue virus type 2, UniProt P29990); test: flavivirus cap methylation enzyme inhibition – biochemical, confirmation dose response, primary screen (AID 588689); assay type: functional
[5] = molecular target: T3, Caspase-6 (Homo sapiens, UniProt P55212); test: inhibition of CASP6 peptide cleavage – biochemical, VEID-R110 fluorescence, cherry-pick, dose response (AID 720632)
T3 sequence (P55212 whole entry): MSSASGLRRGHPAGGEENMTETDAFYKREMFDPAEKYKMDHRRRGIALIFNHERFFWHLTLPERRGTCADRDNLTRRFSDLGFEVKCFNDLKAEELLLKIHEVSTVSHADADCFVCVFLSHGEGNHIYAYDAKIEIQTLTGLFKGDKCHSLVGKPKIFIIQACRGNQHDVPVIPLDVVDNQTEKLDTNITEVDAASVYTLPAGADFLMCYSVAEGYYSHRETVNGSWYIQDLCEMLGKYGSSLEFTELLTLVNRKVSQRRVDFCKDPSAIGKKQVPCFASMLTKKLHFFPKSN

[6] = molecular target: T4, Histone-lysine N-methyltransferase NSD2 (Homo sapiens, UniProt O96028); assay type: biochemical
T4 sequence (O96028 whole entry): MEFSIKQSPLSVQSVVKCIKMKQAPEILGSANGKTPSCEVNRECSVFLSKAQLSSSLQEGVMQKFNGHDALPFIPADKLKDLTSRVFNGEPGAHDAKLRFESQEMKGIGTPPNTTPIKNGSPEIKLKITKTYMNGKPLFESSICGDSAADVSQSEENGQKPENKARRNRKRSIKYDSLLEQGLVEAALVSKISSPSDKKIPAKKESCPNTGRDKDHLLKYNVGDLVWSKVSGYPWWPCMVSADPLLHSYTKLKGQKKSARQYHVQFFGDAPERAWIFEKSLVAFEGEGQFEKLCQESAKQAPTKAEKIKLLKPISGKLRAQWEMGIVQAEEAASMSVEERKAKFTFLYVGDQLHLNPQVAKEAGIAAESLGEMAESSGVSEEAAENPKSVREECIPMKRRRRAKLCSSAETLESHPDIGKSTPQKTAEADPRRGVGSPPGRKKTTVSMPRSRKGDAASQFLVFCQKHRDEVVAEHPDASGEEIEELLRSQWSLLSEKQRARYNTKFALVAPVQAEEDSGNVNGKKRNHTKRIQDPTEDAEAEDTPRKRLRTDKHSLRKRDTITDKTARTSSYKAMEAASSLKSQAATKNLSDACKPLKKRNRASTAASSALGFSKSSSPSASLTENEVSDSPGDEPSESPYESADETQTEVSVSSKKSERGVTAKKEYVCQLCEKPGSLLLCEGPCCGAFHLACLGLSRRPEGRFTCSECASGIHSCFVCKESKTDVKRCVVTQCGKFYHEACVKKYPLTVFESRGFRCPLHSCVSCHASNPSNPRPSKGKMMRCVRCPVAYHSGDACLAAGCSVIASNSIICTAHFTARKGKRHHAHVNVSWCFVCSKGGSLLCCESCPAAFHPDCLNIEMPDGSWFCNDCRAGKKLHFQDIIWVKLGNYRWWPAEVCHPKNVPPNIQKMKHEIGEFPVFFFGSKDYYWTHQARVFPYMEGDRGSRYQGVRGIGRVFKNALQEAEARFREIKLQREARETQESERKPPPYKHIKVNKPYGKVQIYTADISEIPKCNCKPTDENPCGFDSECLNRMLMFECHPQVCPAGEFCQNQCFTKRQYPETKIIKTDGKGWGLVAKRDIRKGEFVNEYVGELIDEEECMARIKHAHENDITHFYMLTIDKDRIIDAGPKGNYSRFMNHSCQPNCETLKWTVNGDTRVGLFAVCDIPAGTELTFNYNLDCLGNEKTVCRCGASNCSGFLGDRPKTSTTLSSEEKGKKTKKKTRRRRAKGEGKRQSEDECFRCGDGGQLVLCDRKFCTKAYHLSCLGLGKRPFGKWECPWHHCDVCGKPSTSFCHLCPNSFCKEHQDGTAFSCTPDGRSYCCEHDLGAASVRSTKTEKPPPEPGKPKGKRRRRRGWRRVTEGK

[7] = molecular target: Tyrosyl-DNA phosphodiesterase 2 (Homo sapiens, UniProt O95551); test: potency against TDP2 phosphodiesterase activity – biochemical, epi absorbance, IC50, dose response (AID 743297)
[8] = molecular target: Paired box protein Pax-8 (Homo sapiens, UniProt Q06710); test: PAX8 transcriptional activity inhibition in RMG-I – RMG-I cells, luciferase, cherry-pick, dose response (AID 687027); assay type: functional, cell-based;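 note: luciferase reporter driven by Pax8 target thyroperoxidase promoter measured by SteadyGlo luminescence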
[9] = toxicity toward immortalized ovarian surface epithelium – cell-based, plate reader, dry powder samples, cytotoxicity control for PAX8 inhibitor project, dose response (AID 743045); assay type: functional
[10] = A2780 cell killing – plate reader, dry powder samples, cytotoxicity control, dose response (AID 743046); assay type: functional, cell-based
[11] = OVCAR-3 cell viability loss – plate reader, dry powder samples, PAX8 inhibitor project, dose response (AID 743044); assay type: functional, cell-based
[12] = general cell-killing toxicity readout – plate reader, dry powder samples, cytotoxicity control for PAX8 inhibitor project, dose response (AID 743021); assay type: functional, cell-based
[13] = molecular target: Protein disulfide-isomerase (Homo sapiens, UniProt P07237); test: inhibition of PDI-mediated insulin reduction – biochemical, turbidity, dry powder samples, set 2, confirmation (AID 652146)
Chain of Protein disulfide-isomerase (P07237 whole entry): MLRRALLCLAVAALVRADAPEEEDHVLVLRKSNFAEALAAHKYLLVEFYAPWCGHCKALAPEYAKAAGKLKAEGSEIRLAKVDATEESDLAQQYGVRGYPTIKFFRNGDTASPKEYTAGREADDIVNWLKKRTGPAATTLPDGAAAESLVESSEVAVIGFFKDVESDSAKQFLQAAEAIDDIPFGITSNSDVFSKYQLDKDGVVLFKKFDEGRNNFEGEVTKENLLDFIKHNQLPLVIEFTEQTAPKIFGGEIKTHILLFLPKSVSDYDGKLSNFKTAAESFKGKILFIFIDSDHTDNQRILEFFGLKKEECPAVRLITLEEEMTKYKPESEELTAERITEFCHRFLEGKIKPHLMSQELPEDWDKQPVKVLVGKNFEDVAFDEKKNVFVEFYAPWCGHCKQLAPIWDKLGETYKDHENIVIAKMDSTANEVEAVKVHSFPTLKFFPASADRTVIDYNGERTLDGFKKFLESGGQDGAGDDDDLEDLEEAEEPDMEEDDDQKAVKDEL

Chain of Tyrosyl-DNA phosphodiesterase 2 (O95551 whole entry): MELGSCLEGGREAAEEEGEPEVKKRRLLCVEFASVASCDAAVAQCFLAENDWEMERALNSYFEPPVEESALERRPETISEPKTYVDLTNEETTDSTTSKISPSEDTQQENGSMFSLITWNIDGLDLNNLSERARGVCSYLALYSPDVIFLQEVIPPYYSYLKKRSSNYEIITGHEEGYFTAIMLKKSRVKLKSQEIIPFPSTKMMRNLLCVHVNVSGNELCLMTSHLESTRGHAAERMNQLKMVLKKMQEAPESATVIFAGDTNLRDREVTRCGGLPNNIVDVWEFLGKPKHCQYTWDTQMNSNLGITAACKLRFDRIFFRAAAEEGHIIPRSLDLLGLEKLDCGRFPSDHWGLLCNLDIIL
Chain of Genome polyprotein (P29990 2492-3391 limits assumed): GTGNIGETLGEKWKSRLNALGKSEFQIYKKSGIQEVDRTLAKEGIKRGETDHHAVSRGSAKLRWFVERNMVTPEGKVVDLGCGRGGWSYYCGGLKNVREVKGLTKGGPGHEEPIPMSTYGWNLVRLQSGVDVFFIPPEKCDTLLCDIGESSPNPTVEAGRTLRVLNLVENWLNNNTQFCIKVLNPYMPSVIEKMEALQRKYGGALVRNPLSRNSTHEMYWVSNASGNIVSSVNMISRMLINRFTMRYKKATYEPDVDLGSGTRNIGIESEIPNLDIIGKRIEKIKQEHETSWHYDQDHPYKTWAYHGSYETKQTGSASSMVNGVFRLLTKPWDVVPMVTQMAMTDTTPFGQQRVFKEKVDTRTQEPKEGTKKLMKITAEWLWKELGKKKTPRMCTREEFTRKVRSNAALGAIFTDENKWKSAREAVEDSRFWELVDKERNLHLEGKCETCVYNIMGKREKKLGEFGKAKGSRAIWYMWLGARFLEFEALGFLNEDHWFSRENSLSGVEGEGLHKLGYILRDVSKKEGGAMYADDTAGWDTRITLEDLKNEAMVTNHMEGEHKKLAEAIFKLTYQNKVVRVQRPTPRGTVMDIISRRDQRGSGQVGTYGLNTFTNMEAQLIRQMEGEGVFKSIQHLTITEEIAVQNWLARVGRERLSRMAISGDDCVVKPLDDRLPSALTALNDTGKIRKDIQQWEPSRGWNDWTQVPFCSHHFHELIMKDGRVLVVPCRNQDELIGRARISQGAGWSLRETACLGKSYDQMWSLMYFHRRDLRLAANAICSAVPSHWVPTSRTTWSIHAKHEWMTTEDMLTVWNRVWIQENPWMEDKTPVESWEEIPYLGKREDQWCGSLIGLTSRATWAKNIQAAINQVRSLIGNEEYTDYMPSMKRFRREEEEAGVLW
Chain of Paired box protein Pax-8 (Q06710 whole entry): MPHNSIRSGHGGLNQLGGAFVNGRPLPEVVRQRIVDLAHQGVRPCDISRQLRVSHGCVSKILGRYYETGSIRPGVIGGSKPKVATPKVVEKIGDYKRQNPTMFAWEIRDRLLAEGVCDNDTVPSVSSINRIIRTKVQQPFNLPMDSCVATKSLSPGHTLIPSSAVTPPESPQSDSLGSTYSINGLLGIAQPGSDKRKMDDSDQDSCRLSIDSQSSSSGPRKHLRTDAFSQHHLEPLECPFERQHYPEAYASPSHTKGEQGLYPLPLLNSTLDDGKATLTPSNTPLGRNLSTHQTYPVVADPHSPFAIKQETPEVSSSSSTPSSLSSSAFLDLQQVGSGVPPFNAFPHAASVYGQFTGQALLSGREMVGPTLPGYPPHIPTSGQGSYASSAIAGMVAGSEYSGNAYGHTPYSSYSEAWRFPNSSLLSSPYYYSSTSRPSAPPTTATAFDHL

IC50 [1]: 12.9 µM (active)
AC50 [2]: 8.42 µM (active)
IC50 [4]: 14.9 µM (active)
AC50 [5]: 20.7 µM (active)
AC50 [6]: > 20 µM (inactive)
IC50 [7]: > 128 µM (inactive)
Structure (SMILES): Cc1ccc(C)c(-n2c3nc(=O)[nH]c(=O)c-3cc3cc([N+](=O)[O-])ccc32)c1
CC50 [3]: 14.5 µM (active)

Structure (SMILES): Cc1ccc(S(=O)(=O)Nc2ccc3c(c2)CC(=O)N([C@@H](C)CO)C[C@H](C)[C@@H](CN(C)Cc2ccc(Oc4ccccc4)cc2)O3)cc1
AC50 [8]: 4.67 µM (active)
AC50 [9]: 26.3 µM (active)
AC50 [10]: 38.6 µM (active)
AC50 [11]: 19.8 µM (active)
AC50 [12]: 55 µM (active)

AC50 [13]: > 30 µM (inactive)
Structure (SMILES): CCOC(=O)C1(Cc2cccc(OC)c2)CCN(Cc2ccc(O)c(Cl)c2)CC1
